The subject of assay [1] is TcdB holotoxin. The format is cell-based, human.
The target of another assay is TcdB CPD (Clostridioides difficile, UniProt P18177). The format is biochemical, Clostridium difficile. The settings on record: autocleavage assay.
Assay [2] concerns TcdB holotoxin. The format is cell-based, human. The source holds these as a separate data set.

“Also recorded” adds a separate entry of the source.

TcdB CPD, sequence (P18177 1-804 limits assumed): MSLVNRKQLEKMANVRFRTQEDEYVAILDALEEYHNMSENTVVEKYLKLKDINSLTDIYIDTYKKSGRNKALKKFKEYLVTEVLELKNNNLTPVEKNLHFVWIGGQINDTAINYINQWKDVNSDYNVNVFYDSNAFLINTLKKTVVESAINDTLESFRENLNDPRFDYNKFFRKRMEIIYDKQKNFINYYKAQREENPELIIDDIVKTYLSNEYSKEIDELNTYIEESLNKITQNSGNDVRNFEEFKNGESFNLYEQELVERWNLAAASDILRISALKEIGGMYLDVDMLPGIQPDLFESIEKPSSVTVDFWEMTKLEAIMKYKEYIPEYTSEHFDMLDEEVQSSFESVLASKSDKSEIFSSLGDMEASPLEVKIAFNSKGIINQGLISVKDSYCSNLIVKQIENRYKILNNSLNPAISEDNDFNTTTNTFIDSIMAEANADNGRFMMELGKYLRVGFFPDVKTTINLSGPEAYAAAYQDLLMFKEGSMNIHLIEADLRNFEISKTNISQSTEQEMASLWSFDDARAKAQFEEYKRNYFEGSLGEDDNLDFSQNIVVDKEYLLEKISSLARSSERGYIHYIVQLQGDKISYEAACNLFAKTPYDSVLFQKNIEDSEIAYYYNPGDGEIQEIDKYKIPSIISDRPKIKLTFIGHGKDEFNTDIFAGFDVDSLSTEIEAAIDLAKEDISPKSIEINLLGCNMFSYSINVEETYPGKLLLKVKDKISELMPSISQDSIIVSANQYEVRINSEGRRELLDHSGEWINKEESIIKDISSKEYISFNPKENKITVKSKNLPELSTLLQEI

Regarding JPM-OEt, in the assay on TcdB holotoxin [1], the “effect on holotoxin-mediated cell rounding” value was “failed to inhibit toxin function; also recorded: no effect on toxin function”. Moreover, at TcdB CPD, the “inhibition of CPD activity” value was “poorly inhibit CPD activity”. Further, in the assay on TcdB holotoxin [2], the “effect on Rac1 glucosylation by holotoxin” value is given as “no effect on toxin function”.

These data come from PMC3005307 (Chemistry & biology, 2010).
